Measurements: article PMC2737470 (Circulation research, 2009)

Key:
[1] = tested on: N2a cell pairs expressing Cx43; assay: Patch clamp, octanol-induced uncoupling of Cx43 channels; format: cell-based
[2] = tested on: recombinant Cx40CT; assay: Surface plasmon resonance with recombinant Cx40CT; format: binding; details: Online Figure IV
[3] = tested on: carboxyl terminal domain of Cx43 (Cx43CT); assay: Surface plasmon resonance, peptide binding to immobilised Cx43CT; details: molecular weight-normalized responses, same sensor chip
[4] = tested on: recombinant Cx43CT; assay: NMR 15N-HSQC of Cx43CT titrated with peptide; format: binding; details: Cx43CT titrated with peptide to 1:500 and 1:900 molar ratio
[5] = tested on: N2a cells expressing Cx40; assay: Patch clamp, octanol-induced uncoupling of Cx40 channels; format: cell-based; details: N2a cells expressing Cx40, peptide in pipette
[6] = target: carboxyl terminal domain of Cx43 (Cx43CT), recombinant; assay: SPR

RRNYRRNY
cell pairs in which the peptide failed to prevent uncoupling ([1]; octanol-induced uncoupling, peptide in pipette): approximately 40% | cell pairs remaining coupled at the end of octanol exposure (number of pairs) ([1]; peptide in patch pipette (100 μM), 10 minutes of octanol): four of the six

Cyclo-RRPPYRQ (head to tail) [CyRP-71]
SPR response with Cx40CT (in words) [2]: only a minor SPR deflection | SPR response relative to CyRP-62 (times higher) [3]: 9 times | interaction with Cx43CT by 15N-HSQC resonance shifts (in words) [4]: confirm the binding of Cx43CT to CyRP-71 | effect on time course of octanol-induced uncoupling in Cx40 (in words) [5]: did not modify the time course

CyRP-71 (cyclo-RRPPYRQ as printed in Table 1) (peptide)
SPR response amplitude normalized by molecular weight [6]: 33.9 a.u.

Cyclo-RRPPYQ (head to tail) [CyRP-62]
cells remaining coupled after ten minutes of octanol superfusion ([1]; peptide 100 μM in patch pipette): 100%

RRPPYQ (backbone-cyclized (cyclo-, Q6 joined to R1)) [CyRP-62 (cyclo-RRPPYQ)]
SPR response amplitude normalized by molecular weight (125 μM) [6]: 3.71 a.u.
